Blank lines part the entries; values can stand above or below the compound they belong to.
Experiments:
[1] = target: T1, Cyclin-G-associated kinase (Homo sapiens) (UniProt O14976); assay: Selectivity interaction (KinomeScan (DiscoverX)) EUB0000607a GAK; conditions: at 10 µM
T1 sequence (whole entry): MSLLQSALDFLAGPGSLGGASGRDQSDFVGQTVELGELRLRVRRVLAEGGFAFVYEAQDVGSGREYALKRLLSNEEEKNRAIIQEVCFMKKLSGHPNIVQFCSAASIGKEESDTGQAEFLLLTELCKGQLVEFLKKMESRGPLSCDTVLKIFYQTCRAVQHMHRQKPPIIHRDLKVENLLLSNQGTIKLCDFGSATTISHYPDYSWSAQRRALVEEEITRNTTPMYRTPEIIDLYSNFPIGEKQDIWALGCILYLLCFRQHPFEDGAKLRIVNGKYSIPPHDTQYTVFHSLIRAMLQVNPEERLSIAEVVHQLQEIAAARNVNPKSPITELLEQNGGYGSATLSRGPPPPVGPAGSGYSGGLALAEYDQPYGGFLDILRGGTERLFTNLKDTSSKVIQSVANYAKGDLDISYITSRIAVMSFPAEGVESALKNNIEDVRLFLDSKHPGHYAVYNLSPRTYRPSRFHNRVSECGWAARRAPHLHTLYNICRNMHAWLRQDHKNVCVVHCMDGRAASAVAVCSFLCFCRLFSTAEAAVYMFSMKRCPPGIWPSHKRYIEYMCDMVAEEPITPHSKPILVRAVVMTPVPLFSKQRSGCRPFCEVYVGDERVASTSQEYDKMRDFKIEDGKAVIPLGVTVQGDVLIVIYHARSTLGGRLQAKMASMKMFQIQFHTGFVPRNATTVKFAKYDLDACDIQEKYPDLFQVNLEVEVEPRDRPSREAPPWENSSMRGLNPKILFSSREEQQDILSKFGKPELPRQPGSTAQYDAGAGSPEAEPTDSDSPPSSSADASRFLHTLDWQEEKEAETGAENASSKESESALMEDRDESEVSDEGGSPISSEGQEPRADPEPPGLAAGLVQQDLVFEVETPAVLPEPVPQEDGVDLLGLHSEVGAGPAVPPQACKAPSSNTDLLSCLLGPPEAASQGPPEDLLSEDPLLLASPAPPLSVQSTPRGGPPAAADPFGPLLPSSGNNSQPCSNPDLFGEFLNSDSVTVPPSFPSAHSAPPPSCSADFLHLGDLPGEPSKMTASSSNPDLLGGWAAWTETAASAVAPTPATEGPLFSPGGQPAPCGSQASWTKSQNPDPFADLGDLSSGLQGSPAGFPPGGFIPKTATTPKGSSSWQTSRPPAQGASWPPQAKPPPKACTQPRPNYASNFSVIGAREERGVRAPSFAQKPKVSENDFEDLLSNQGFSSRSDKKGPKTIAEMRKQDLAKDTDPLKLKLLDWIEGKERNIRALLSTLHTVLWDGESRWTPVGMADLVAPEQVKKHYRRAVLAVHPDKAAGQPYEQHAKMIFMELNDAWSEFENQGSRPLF

[2] = target: T2, 5'-AMP-activated protein kinase catalytic subunit alpha-1 (Homo sapiens, UniProt Q13131); assay: Selectivity interaction (ActivX KiNativ screen (kinase selectivity in THP-1 cell lysates)) EUB0000639a PRKAA1; format: subcellular; conditions: lysate, at 5 µM
[3] = target: Ribosomal protein S6 kinase alpha-1 (Homo sapiens, UniProt Q15418); assay: Selectivity interaction (ActivX KiNativ screen (kinase selectivity in THP-1 cell lysates)) EUB0000639a RPS6KA1; format: subcellular; conditions: lysate, at 5 µM
[4] = target: Serine/threonine-protein kinase pim-3 (Homo sapiens) (UniProt Q86V86); assay: Selectivity interaction (Kinase panel (DSF assay)) EUB0001489b PIM3
[5] = target: T2, 5'-AMP-activated protein kinase catalytic subunit alpha-1; assay: Selectivity interaction (KinomeScan (DiscoverX)) EUB0001049a PRKAA1; conditions: at 1 µM
[6] = target: T3, Mitogen-activated protein kinase kinase kinase 6 (Homo sapiens) (UniProt O95382); assay: Selectivity interaction (KinomeScan (DiscoverX)) EUB0000655a MAP3K6; conditions: at 10 µM
T3 sequence (whole entry): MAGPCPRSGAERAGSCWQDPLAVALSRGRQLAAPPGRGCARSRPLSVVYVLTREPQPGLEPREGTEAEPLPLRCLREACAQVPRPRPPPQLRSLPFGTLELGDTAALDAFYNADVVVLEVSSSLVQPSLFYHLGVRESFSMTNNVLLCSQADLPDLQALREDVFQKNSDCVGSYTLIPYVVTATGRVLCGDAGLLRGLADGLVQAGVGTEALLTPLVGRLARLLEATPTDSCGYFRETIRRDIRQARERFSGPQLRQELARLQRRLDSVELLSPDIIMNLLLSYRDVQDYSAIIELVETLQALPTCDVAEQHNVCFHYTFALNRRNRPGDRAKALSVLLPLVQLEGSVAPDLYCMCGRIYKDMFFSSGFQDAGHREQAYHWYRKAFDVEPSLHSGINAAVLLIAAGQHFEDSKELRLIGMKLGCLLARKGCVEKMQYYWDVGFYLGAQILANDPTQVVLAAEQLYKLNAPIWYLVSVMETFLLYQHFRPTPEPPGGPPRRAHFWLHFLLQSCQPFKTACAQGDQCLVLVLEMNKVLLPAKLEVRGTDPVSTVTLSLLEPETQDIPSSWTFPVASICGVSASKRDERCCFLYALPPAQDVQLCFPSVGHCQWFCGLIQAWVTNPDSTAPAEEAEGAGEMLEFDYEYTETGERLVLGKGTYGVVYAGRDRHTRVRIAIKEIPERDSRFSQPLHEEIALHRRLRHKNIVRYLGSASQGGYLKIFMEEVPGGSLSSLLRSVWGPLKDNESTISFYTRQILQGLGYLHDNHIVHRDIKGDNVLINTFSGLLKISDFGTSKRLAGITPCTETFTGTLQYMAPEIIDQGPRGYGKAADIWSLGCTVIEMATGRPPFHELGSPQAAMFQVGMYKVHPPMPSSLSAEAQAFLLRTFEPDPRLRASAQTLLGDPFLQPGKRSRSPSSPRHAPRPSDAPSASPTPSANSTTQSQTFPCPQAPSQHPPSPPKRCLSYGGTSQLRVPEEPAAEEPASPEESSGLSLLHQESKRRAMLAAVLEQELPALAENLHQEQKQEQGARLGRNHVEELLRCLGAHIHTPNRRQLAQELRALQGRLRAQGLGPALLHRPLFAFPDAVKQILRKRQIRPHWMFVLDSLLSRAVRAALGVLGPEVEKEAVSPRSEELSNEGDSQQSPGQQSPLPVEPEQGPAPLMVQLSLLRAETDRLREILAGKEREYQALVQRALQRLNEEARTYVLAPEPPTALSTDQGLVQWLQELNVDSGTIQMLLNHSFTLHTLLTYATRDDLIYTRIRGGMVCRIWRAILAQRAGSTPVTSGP

[7] = target: MAP/microtubule affinity-regulating kinase 3 (Homo sapiens) (UniProt P27448); assay: Selectivity interaction (KinomeScan (DiscoverX)) EUB0000655a MARK3; conditions: at 10 µM
[8] = target: Dual specificity protein kinase CLK2 (Homo sapiens, UniProt P49760); conditions: at 10 µM
Chain of Dual specificity protein kinase CLK2 (P49760 whole entry, looked up): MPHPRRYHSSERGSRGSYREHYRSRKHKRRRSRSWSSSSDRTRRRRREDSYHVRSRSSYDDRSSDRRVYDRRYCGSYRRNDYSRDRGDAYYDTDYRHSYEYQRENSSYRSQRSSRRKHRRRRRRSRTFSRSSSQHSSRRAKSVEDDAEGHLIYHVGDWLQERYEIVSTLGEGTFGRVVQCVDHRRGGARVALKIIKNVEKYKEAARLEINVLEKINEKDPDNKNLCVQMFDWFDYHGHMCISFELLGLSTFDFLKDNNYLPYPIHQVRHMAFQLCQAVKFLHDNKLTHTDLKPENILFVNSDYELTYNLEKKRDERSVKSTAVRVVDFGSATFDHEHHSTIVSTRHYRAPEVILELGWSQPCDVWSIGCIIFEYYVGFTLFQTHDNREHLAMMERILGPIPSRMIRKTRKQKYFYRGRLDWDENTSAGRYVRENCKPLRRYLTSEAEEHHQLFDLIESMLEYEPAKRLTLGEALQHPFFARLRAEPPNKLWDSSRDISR

T2 sequence (Q13131 whole entry, looked up): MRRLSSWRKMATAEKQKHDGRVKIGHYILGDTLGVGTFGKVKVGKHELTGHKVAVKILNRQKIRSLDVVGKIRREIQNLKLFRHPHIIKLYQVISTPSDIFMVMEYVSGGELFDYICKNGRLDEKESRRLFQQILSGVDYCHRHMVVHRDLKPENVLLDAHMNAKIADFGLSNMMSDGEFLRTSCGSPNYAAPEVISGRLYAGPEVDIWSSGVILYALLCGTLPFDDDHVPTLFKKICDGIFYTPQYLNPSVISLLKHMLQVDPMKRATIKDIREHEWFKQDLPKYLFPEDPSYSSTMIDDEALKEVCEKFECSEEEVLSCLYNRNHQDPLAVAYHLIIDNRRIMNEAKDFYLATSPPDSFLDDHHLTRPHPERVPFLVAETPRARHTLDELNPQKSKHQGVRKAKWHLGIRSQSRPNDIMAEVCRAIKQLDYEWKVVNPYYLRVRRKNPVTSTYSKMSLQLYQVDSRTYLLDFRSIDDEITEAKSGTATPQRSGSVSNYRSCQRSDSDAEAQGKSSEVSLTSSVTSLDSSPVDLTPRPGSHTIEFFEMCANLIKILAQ
Chain of Ribosomal protein S6 kinase alpha-1 (Q15418 whole entry): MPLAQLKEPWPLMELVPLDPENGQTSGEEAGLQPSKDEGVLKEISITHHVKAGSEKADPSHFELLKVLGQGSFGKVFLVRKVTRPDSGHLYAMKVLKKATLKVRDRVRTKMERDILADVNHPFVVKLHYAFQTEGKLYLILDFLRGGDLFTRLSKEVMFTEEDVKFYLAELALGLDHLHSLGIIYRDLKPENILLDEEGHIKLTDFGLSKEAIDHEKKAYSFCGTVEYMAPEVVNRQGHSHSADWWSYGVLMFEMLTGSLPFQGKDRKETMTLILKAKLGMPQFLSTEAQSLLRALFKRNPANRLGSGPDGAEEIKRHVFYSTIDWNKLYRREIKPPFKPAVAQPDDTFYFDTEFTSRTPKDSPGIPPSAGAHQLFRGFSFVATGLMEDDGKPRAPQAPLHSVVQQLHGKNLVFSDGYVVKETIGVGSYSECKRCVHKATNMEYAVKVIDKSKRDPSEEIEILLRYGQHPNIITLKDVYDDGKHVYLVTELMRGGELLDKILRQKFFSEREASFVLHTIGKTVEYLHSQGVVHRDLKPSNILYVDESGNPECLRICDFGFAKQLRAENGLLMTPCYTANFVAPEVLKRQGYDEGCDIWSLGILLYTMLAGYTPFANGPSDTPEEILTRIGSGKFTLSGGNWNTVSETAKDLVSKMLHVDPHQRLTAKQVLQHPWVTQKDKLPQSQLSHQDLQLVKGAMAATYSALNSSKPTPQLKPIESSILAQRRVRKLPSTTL
Chain of MAP/microtubule affinity-regulating kinase 3 (Homo sapiens) (P27448 whole entry, looked up): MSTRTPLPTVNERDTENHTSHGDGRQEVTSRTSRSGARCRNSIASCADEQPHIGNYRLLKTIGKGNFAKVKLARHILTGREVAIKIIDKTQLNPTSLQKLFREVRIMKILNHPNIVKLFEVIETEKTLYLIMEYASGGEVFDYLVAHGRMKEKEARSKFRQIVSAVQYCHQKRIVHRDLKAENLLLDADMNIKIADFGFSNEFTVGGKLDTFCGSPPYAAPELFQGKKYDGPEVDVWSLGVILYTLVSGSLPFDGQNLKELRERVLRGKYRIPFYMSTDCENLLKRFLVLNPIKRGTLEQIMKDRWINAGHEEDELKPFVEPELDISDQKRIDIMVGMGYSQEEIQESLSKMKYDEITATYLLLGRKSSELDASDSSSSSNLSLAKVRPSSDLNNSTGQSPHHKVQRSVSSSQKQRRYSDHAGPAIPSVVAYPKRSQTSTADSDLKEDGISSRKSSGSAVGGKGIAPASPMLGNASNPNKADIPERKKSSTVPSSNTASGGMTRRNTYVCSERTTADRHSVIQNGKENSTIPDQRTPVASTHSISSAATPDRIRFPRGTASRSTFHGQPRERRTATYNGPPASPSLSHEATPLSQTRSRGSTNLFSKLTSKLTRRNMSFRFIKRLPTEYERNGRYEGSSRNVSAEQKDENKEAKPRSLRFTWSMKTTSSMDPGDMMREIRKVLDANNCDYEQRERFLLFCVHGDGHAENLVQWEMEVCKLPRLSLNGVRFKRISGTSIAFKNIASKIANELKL

SMILES: CNC(=O)Nc1ccc(-c2nc(N3CC4CCC(C3)O4)c3cnn(C4CCC5(CC4)OCCO5)c3n2)cc1
% of control [1]: 75%

% of inhibition [2]: 21.9% | % of inhibition [3]: 0.2%
SMILES: CC[C@@H]1[C@H](F)C(=O)N[C@@H]1COc1nccc2cc(C(N)=O)c(OC)cc12 [ZIMLOVISERTIB]

dTM [4]: 2.1 K
SMILES: CN1CCN(C(=O)c2ccc3cc2OCCOCCNc2ccn4ncc-3c4n2)CC1

SMILES: COc1cc(Nc2nc(C)cc(-c3cnn4nc(OC)ccc34)n2)cc(C(F)(F)F)c1
% of control [5]: 87%

SMILES: CN(C)CCOc1ccc(-c2nc(-c3ccncc3)c(-c3ccc4c(c3)CC/C4=N\O)[nH]2)cc1
% of control [6]: 100% | % of control [7]: 95%

SMILES: Cc1cc([C@@H](C)Nc2ccccc2C(=O)O)c2nc(N3CCOCC3)cc(=O)n2c1 [AZD-6482]
% of control [8]: 70%
